# Results taken from ChEMBL document CHEMBL1909559, “Design, synthesis, and biological evaluation of benzodiazepine-based SUMO-specific protease 1 inhibitors” (Bioorg Med Chem Lett, 2011).
# pIC50: −log10 of the molar value.
# Target: T1, Sentrin-specific protease 1 (Homo sapiens, UniProt Q9P0U3)
# T1 sequence (Q9P0U3 whole entry): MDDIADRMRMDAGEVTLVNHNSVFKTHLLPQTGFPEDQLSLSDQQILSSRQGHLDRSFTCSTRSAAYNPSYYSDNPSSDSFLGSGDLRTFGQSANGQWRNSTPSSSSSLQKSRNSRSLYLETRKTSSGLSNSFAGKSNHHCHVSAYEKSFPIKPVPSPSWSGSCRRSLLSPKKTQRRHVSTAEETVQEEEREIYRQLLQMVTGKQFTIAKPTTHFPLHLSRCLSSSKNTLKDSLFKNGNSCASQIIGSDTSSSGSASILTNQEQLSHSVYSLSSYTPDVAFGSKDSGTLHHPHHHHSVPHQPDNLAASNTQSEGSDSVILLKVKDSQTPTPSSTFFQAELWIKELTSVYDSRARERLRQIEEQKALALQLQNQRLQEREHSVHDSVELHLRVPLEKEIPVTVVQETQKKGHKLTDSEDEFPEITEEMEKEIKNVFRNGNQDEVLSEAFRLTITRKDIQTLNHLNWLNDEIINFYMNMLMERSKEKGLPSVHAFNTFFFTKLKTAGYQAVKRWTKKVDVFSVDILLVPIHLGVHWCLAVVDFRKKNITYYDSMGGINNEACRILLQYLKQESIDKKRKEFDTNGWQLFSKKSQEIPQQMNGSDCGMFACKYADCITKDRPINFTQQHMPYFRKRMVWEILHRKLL
# Experiment: Inhibition of histidine-tagged human SENP1 catalytic domain preincubated for 10 mins by SUMO-CHOP-PLA2 reporter fluorescence assay
row,SMILES,pIC50
1,CC(=O)Nc1cccc(C(=O)NC2N=C(c3ccccc3)c3ccccc3N(CC=O)C2=O)c1 (stereo not drawn),< 4.00
2,CC(C)(C)OC(=O)Nc1cccc(C(=O)NC2N=C(c3ccccc3)c3ccccc3N(CC=O)C2=O)c1 (stereo not drawn),< 4.00
3,O=CCN1C(=O)C(NC(=O)OCc2ccccc2)N=Cc2ccccc21 (stereo not drawn),< 4.00
4,O=CCCN1C(=O)C(NC(=O)OCc2ccccc2)N=C(c2ccccc2)c2ccccc21 (stereo not drawn),< 4.00
5,CC(C)(C)OC(=O)Nc1ccc(C(=O)NC2N=C(c3ccccc3)c3ccccc3N(CC=O)C2=O)cc1 (stereo not drawn),< 4.00
6,O=C(NC1N=C(c2ccccc2)c2ccccc2N(CCO)C1=O)OCc1ccccc1 (stereo not drawn),< 4.00

# Test system: PC-3
# Experiment: Cytotoxicity against human PC3 cells
row,SMILES,pIC50
1,O=CCN1C(=O)C(NC(=O)c2ccc(NC(=O)OCc3ccccc3)cc2)N=C(c2ccccc2)c2ccccc21 (stereo not drawn),4.89
2,O=CCN1C(=O)C(NC(=O)c2cccc(NC(=O)OCc3ccccc3)c2)N=C(c2ccccc2)c2ccccc21 (stereo not drawn),4.45
